We go through 43 compounds from patent US20090306373A1, “4,7-DIHYDROTHIENO[2,3-B]PYRIDINE COMPOUNDS AND PHARMACEUTICAL COMPOSITIONS” (priority 2005, published 2009).

The term EC50 denotes the concentration that produces a half-maximal response.

The test system of the first assay is alpha-MyHC. Briefly: alpha-MyHC cytoblot in neonatal rat ventricular myocytes (NRVM). It counts as cell-based. To be noted: Rattus norvegicus, Ventricular myocyte, Table 1, 72 hours, concentration giving 50% of maximum response. Here is the method:
In vitro activity of each compound is measured using the alpha-MyHC cytoblot process. Briefly, neonatal rat ventricular myocytes (NRVM) at 120,000 cells/ml in HyQ DME/High modified culture media supplemented with 10% charcoal/dextran treated FBS, 0.1% Nutridoma-SP, 1:100 MEM non-essential amino acids, 1:50 MEM amino acids solution w/o L-Gln, 1 mM sodium pyruvate and 1:100 P/S/G, are plated on gelatin coated sterile 384-well plates (Costar 3712) at 6,000 cells per well. Cells are incubated overnight at 37° C. in 5% CO2 100% humidity. Following overnight growth the media is changed to HyQ DME/High modified culture media supplemented with 0.3% Nutridoma-SP, 1:100 MEM non-essential amino acids, 1:50 MEM amino acids solution w/o L-Gln, 1 mM sodium pyruvate and 1:100 P/S/G. Cells are then dosed with serial dilutions of each compound in DMSO. Each concentration in the dose range is dosed in quadruplicate. Dosing is done in such a way so that the final DMSO concentration was 0.44%. Compound dilutions are 3-fold with the final top concentration of 10 uM. […] Following dosing, the cells are incubated for 72 hours at 37° C. in 5% CO2 100% humidity and then processed with the cytoblot method. Briefly, cell media is aspirated and cell monolayers washed with PBS and fixed with 100% methanol for 30 minutes. Fixed cells are then blocked with PBS, 0.05% Tween-20, 1% BSA, for 1 hour. Following blocking, cells are incubated with primary alpha-MyHC-specific antibody (1:30 dilution of BA-G5 hybridoma conditioned media, ATCC HB276) for 1 hour. Following incubation with the primary antibody, cells are washed with PBS, 0.05% Tween-20, 1% BSA and incubated with secondary antibody (1:1000 dilution, goat-anti-mouse HRP, Southern Biotech, 1031-05) for 1 hour. Following incubation with the secondary antibody, wells are washed and incubated in SuperSignal, West Dura HRP-luminescence substrate for 30 seconds under shaking at room temperature. Luminescence is measured using a Packard Fusion plate reader. […] RLU values are converted into percent fraction of low control and dose responses are fitted to a sigmoidal 4-parameter equation (XLFit, IDBS) where the EC50 and Max Plateau values were extracted. […] Max Plateau is the […] maximum value determined by the dose response fit.
`CCC(=O)C1=C(CC)Nc2sc(C(=O)c3ccc(Cl)c(Cl)c3)c(N)c2C1c1ccncc1` (stereo not shown) [Compound 104, 1-[3-amino-2-(3,4 dichloro-benzoyl)-6-ethyl-4 pyridin-4-yl-4,7 dihydro-thieno[2,3-b]pyridin-5-yl]-propan-1-one] yielded an EC50 of 24.8 nM.

As to `CCC(=O)C1=C(CC)Nc2sc(C(=O)c3ccc(F)c(F)c3)c(N)c2C1c1ccccc1F` (stereo not shown) [Compound 108, 1-[3-amino-2-(3,4 difluoro-benzoyl)-6-ethyl-4-(2 fluoro-phenyl)-4,7 dihydro-thieno[2,3-b]pyridine-5-yl]propan-1-one], the EC50 was 4.02 nM.

The same assay, now with this note: Table 1, 72 hours, fitted maximum, percent fraction of low control (vehicle), in %.
In the case of `CCC(=O)C1=C(CC)Nc2sc(C(=O)c3ccc(Cl)c(Cl)c3)c(N)c2C1c1ccnc(Cl)c1` (stereo not shown) [Compound 99], the “Max Plateau” value turned out to be 264.37 ± 33.84.

As for `CCC(=O)C1=C(CC)Nc2sc(C(=O)c3ccc(Cl)c(Cl)c3)c(N)c2C1c1cc(F)cc(F)c1` (stereo not shown) [Compound 100], the “Max Plateau” value was determined as 262.04 ± 31.65.

Take `CCC(=O)C1=C(CC)Nc2sc(C(=O)c3ccc(F)c(F)c3)c(N)c2C1c1cc(F)cc(F)c1` (stereo not shown) [Compound 101]: the “Max Plateau” value was 230.49 ± 17.13.

Regarding `CCC(=O)C1=C(CC)Nc2sc(C(=O)c3ccc(F)c(F)c3)c(N)c2C1c1ccnc(F)c1` (stereo not shown) [Compound 102], the “Max Plateau” value was 269.88 ± 36.90.

As to `CCC(=O)C1=C(CC)Nc2sc(C(=O)c3cccnc3)c(N)c2C1c1ccnc(F)c1` (stereo not shown) [Compound 103], the “Max Plateau” value is recorded as 254.65 ± 31.26.

On to `CCC(=O)C1=C(CC)Nc2sc(C(=O)c3ccccc3)c(N)c2C1c1cc(F)cc(F)c1` (stereo not shown) [Compound 105], for which the “Max Plateau” value amounted to 273.18 ± 37.33.

In the case of `CCC(=O)C1=C(CC)Nc2sc(C(=O)c3ccccc3Br)c(N)c2C1c1ccccc1` (stereo not shown) [Compound 106], the “Max Plateau” value was determined as 244.21 ± 29.53.

`CCC(=O)C1=C(CC)Nc2sc(C(=O)c3c(Cl)cccc3Cl)c(N)c2C1c1ccccc1F` (stereo not shown) [Compound 107]: the “Max Plateau” value turned out to be 273.85 ± 29.06.

Regarding `CCC(=O)C1=C(CC)Nc2sc(C(=O)c3ccc(C#N)cc3)c(N)c2C1c1ccccc1` (stereo not shown) [Compound 112], the “Max Plateau” value stood at 266.67 ± 57.74.

The assay is the same for the next values; noted with them: Table 2, 72 hours, fitted maximum, percent fraction of low control (vehicle), in %.
`CCOC(=O)C1=C(C)Nc2sc(C(=O)c3ccc(Cl)c(Cl)c3)c(N)c2C1c1ccccc1` (stereo not shown) [Compound 113]: the “Max Plateau” value is given as 256.38.

On to `COC(=O)C1=C(C(C)C)Nc2sc(C(=O)c3ccc(Cl)c(Cl)c3)c(N)c2C1c1ccccc1` (stereo not shown) [Compound 116], for which the “Max Plateau” value is given as 107.57.

`COCCOC(=O)C1=C(C)Nc2sc(C(=O)c3ccc(Cl)c(Cl)c3)c(N)c2C1c1ccccc1` (stereo not shown) [Compound 119]: the “Max Plateau” value is 234.93.

In the case of `COCC1=C(C(=O)OC)C(c2ccccc2)c2c(sc(C(=O)c3ccc(Cl)c(Cl)c3)c2N)N1` (stereo not shown) [Compound 120], the “Max Plateau” value is reported as 140.79.

Regarding `COC(=O)C1=C(C(C)(C)C)Nc2sc(C(=O)c3ccc(Cl)c(Cl)c3)c(N)c2C1c1ccccc1` (stereo not shown) [Compound 131], the “Max Plateau” value is 158.97.

With `COC(=O)C1=C(C2CC2)Nc2sc(C(=O)c3ccc(Cl)c(Cl)c3)c(N)c2C1c1ccccc1` (stereo not shown) [Compound 133], the “Max Plateau” value was 180.24.

Turning to `COC(=O)C1=C(C(C)C)Nc2sc(C(=O)c3ccc(Cl)c(Cl)c3)c(N)c2C1c1cccc([N+](=O)[O-])c1` (stereo not shown) [Compound 134], the “Max Plateau” value is reported as 98.33.

`CC1=C(C(=O)OC(C)C)C(c2ccccc2)c2c(sc(C(=O)c3ccc(Cl)c(Cl)c3)c2N)N1` (stereo not shown) [Compound 135]: the “Max Plateau” value is given as 186.32.

As to `CCC1=C(C(=O)OC)C(c2c(F)cccc2F)c2c(sc(C(=O)c3ccc(Cl)c(Cl)c3)c2N)N1` (stereo not shown) [Compound 137], the “Max Plateau” value stood at 213.90.

Take `CCC1=C(C(=O)OC)C(c2ccccc2)c2c(sc(C(=O)c3cccc([N+](=O)[O-])c3)c2N)N1` (stereo not shown) [Compound 139]: the “Max Plateau” value was determined as 281.08.

As for `CCC1=C(C(=O)OC)C(c2ccccc2F)c2c(sc(C(=O)c3cccc([N+](=O)[O-])c3)c2N)N1` (stereo not shown) [Compound 140], the “Max Plateau” value is 266.63.

For the compound `CCC1=C(C(=O)OC)C(c2c(F)cccc2F)c2c(sc(C(=O)c3cccc([N+](=O)[O-])c3)c2N)N1` (stereo not shown) [Compound 141], the “Max Plateau” value stood at 261.69.

Turning to `CCOC(=O)C1=C(CC)Nc2sc(C(=O)c3ccc(Cl)c(Cl)c3)c(N)c2C1c1ccccc1F` (stereo not shown) [Compound 142], the “Max Plateau” value came to 194.32.

Turning to `CCC1=C(C(=O)OC)C(c2ccccc2)c2c(sc(C(=O)c3cccc(C#N)c3)c2N)N1` (stereo not shown) [Compound 143], the “Max Plateau” value was 290.53.

Turning to `COC(=O)C1=C(C2CC2)Nc2sc(C(=O)c3ccc(Cl)c(Cl)c3)c(N)c2C1c1ccccc1F` (stereo not shown) [Compound 144], the “Max Plateau” value was determined as 187.17.

Consider `CCOC(=O)C1=C(CC)Nc2sc(C(=O)c3ccc(Cl)cc3Cl)c(N)c2C1c1ccccc1` (stereo not shown) [Compound 145], for which the “Max Plateau” value is 224.48.

As to `CCOC(=O)C1=C(CC)Nc2sc(C(=O)c3cc(Cl)ccc3Cl)c(N)c2C1c1ccccc1` (stereo not shown) [Compound 146], the “Max Plateau” value was 213.49.

Turning to `CCOC(=O)C1=C(CC)Nc2sc(C(=O)c3cc(C(F)(F)F)cc(C(F)(F)F)c3)c(N)c2C1c1ccccc1` (stereo not shown) [Compound 149], the “Max Plateau” value was 207.18.

With `CCC1=C(C(=O)OC)C(c2ccccc2F)c2c(sc(C(=O)c3ccc(Cl)c(C)c3)c2N)N1` (stereo not shown) [Compound 150], the “Max Plateau” value amounted to 228.28.

Regarding `CCOC(=O)C1=C(CC)Nc2sc(C(=O)c3cc(F)cc(F)c3)c(N)c2C1c1ccccc1` (stereo not shown) [Compound 151], the “Max Plateau” value is 273.61.

With `CCOC(=O)C1=C(CC)Nc2sc(C(=O)c3cccc(C(=O)O)c3)c(N)c2C1c1ccccc1` (stereo not shown) [Compound 152], the “Max Plateau” value was determined as 238.69.

Consider `CCC1=C(C(=O)OC)C(c2ccc(F)cc2F)c2c(sc(C(=O)c3ccc(Cl)c(Cl)c3)c2N)N1` (stereo not shown) [Compound 153], for which the “Max Plateau” value was found to be 234.66.

As to `COC(=O)C1=C(CCc2ccccc2)Nc2sc(C(=O)c3ccc(Cl)c(Cl)c3)c(N)c2C1c1ccccc1F` (stereo not shown) [Compound 154], the “Max Plateau” value is 125.87.

As for `CCC1=C(C(=O)OC)C(c2cccc(Cl)c2F)c2c(sc(C(=O)c3ccc(Cl)c(Cl)c3)c2N)N1` (stereo not shown) [Compound 155], the “Max Plateau” value was 224.86.

Turning to `CCC1=C(C(=O)OC)C(c2cccc(Cl)c2F)c2c(sc(C(=O)c3cccc([N+](=O)[O-])c3)c2N)N1` (stereo not shown) [Compound 156], the “Max Plateau” value is 243.78.

For the compound `CCC1=C(C(=O)OC2CCCCC2)C(c2ccccc2)c2c(sc(C(=O)c3ccc(Cl)c(Cl)c3)c2N)N1` (stereo not shown) [Compound 160], the “Max Plateau” value turned out to be 186.95.

Take `CCC1=C(C(=O)OCC(C)C)C(c2ccccc2)c2c(sc(C(=O)c3ccc(Cl)c(Cl)c3)c2N)N1` (stereo not shown) [Compound 161]: the “Max Plateau” value turned out to be 232.35.

As for `CCC1=C(C(=O)OC)C(c2ccccc2F)c2c(sc(C(=O)c3cccc(C#N)c3)c2N)N1` (stereo not shown) [Compound 164], the “Max Plateau” value is recorded as 279.90.

Turning to `CCC1=C(C(=O)OC)C(c2ccccc2F)c2c(sc(C(=O)c3cccc(Cl)c3)c2N)N1` (stereo not shown) [Compound 167], the “Max Plateau” value is 255.95.

With `CCOC(=O)C1=C(CC)Nc2sc(C(=O)c3ccc(Cl)c(Cl)c3)c(N)c2C1c1ccncc1F` (stereo not shown) [Compound 168], the “Max Plateau” value came to 239.64.

As to `CCOC(=O)C1=C(CC)Nc2sc(C(=O)c3ccc(Cl)c(Cl)c3)c(N)c2C1c1ccncc1Cl` (stereo not shown) [Compound 169], the “Max Plateau” value is 261.04.

Turning to `CCC1=C(C(=O)OC)C(c2cc(F)cc(F)c2)c2c(sc(C(=O)c3ccc(F)c(F)c3)c2N)N1` (stereo not shown) [Compound 170], the “Max Plateau” value was determined as 262.16.
